Experimental data as given in patent US8927532B2, “Therapeutic agent and diagnostic agent for mitochondrial dysfunction brain diseases” (SBI Pharmaceuticals Co., Ltd., priority 2007, dated 2015).

Test system: middle cerebral artery-occluded model rats
Experiment: Fluorescence observation of brain disease site in cerebral infarction model rats
Type: in vivo, rat
Conditions: 100 mg/kg i.p., 4 hours after administration
Experimental: After 6 hours, 12 hours, 24 hours, and 42 hours from the preparation of middle cerebral artery-occluded model rats, δ-aminolevulinic acid hydrochloride was dissolved in physiological saline and intraperitoneally administered to the individual model rats in an amount of 100 mg/kg-body weight of rat. […] Moreover, it was confirmed that the red light site was in a cerebral infarction state.

## Cl.NCC(=O)CCC(=O)O [δ-aminolevulinic acid hydrochloride]
  metabolism to protoporphyrin IX in the brain: metabolized and converted into protoporphyrin IX
